Data published in publication PMC11770101, “Nonenzymatic lysine D-lactylation induced by glyoxalase II substrate SLG dampens inflammatory immune responses” (Cell Research, 2025).

Biological target: T1, glyoxalase II (GLO2) (Mus musculus, UniProt Q99KB8)
T1 construct: gene Hagh
Assay: LC-MS quantification of accumulated GLO2 substrate SLG in BMDMs treated with […] DiFMOC-G for […] h
Type: cell-based

O=C(O)CNC(=O)[C@H](CSC(=O)OCC1c2ccccc2-c2ccccc21)NC(=O)CC[C@H](NC(=O)OCC1c2ccccc2-c2ccccc21)C(=O)O [DiFMOC-G]
LC-MS quantification of accumulated GLO2 substrate SLG in BMDMs treated with 0.4: treatment with DiFMOC-G could dramatically induce SLG accumulation (Fig. 4e), recapitulating changes observed during macrophage activation
